Laboratory results as given in patent US9072791B2, “Photostabilized pharmaceutical compositions” (DENKI KAGAKU KOGYO KABUSHIKI KAISHA, priority 2008, dated 2015).
“And” between values parts separate entries of the source, which are not always exact repeats. Equal values may be shown once. Read-outs that look alike come from different tables or passages of the source.

Key:
[1] = Photostability test in glass vials not shielded from light: gelation, molecular weight, percent conjugation of MTX (Example 4(2)); format: physicochemical
Procedure: Various photostabilizers (methyl p-hydroxybenzoate (methyl paraben), salicylic acid Na, thiosulfuric acid Na, thioglycolic acid Na, N-acetyltryptophan, and tryptophan) were each dissolved in a preparation buffer (0.9% NaCl containing 2 mM phosphate buffer, pH 7.4) to give a concentration of 1 or 10 mg/ml and thereafter filtered aseptically by passage through a 0.2-μm filter (Millex GV). A powder of the HA-MTX conjugate prepared in accordance with Production 1 was metered aseptically and dissolved in the filtered, photostabilizer-containing preparation buffer to give a concentration of 10 mg/mL; the thus prepared solutions were used as test samples. To prepare a control solution, the HA-MTX conjugate was dissolved in a photostabilizer-free preparation buffer at a concentration of 10 mg/mL.
The thus prepared solutions were put into glass vials not shielded from light and then irradiated with light.
The irradiation was so performed as to give an illuminance of 4000 Lux at 25° C. from a fluorescent lamp for use in a photostability test (TOSHIBA FL20S•D-EDL-D65) by means of a photostability tester (ETAC LABONIC LA110). After the lapse of specified periods (0 h, 25 h, 50 h, 100 h, 150 h, and 300 h) of irradiation, samples were taken and not only checked for gelation but also measured for the molecular weight of the HA-MTX conjugate and the percent conjugation of MTX (in the HA-MTX conjugate).
To evaluate the degree of gelation, the surface of each sample solution was pierced with a spatula and visually checked for the formation of an interface as the result of gelation. […] The apparatus used in gel filtration chromatography was equipped with OHpackSB-806HQ (Shodex) as a column, RI-71 (Shodex) as an […], and 875-UV (JASCO, detection wavelength: 304 nm) as a UV detector and analysis was conducted under the following conditions. Eluent: 50 mM sodium phosphate aqueous solution (pH 6.0); elution rate: 0.6 mL/min; column temperature: 40° C. By the above-described gel filtration chromatography, the elution times of the conjugate of interest were determined and the molecular weight of the same conjugate was determined from the relationship between the elution times and molecular weights of standard substances. As the standard substances, hyaluronic acid samples were prepared in varying molecular weights and their accurate values were calculated by the limiting viscosity method before it was used.

[2] = Photostability test with additional light-shielding film LUMICOOL 1905 (Example 6); format: physicochemical; conditions: for Molecular weight (×10^4), irradiation time 0 h / Molecular weight (×10^4), irradiation time 150 h / Molecular weight (×10^4), irradiation time 300 h / Percent Conjugation (%), irradiation time 0 h / Percent Conjugation (%), irradiation time 150 h / Percent Conjugation (%), irradiation time 300 h: vial wrapped with LUMICOOL 1905;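 on all read-outs here: molecular weight and drug conjugation percentage of the test conjugate, both determined by the method given for the first production procedure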
[3] = additive 1 mg/ml, 4000 Lux, 25° C., not shielded from light
[4] = additive 10 mg/ml, 4000 Lux, 25° C., not shielded from light
[5] = added at 1 mg/mL, not shielded from light

Row | Structure (SMILES) | Molecular weight (×10^4), irradiation time 0 h [1, 3] | Molecular weight (×10^4), irradiation time 25 h [1, 3] | Molecular weight (×10^4), irradiation time 50 h [1, 3] | Molecular weight (×10^4), irradiation time 100 h [1, 3] | Molecular weight (×10^4), irradiation time 150 h [1, 3] | Molecular weight (×10^4), irradiation time 300 h [1, 3] | Percent Conjugation (%) of MTX, irradiation time 0 h [1, 3] [%] | Percent Conjugation (%) of MTX, irradiation time 25 h [1, 3] [%] | Molecular weight (×10^4), irradiation time 0 h ([2]; additive 1 mg/mL) | Molecular weight (×10^4), irradiation time 150 h ([2]; additive 1 mg/mL) | Molecular weight (×10^4), irradiation time 300 h ([2]; additive 1 mg/mL) | Percent Conjugation (%), irradiation time 0 h ([2]; additive 1 mg/mL) [%] | Percent Conjugation (%), irradiation time 150 h ([2]; additive 1 mg/mL) [%] | Percent Conjugation (%), irradiation time 300 h ([2]; additive 1 mg/mL) [%] | Molecular weight (×10^4), irradiation time 0 h ([2]; additive 10 mg/mL) | Molecular weight (×10^4), irradiation time 150 h ([2]; additive 10 mg/mL) | Molecular weight (×10^4), irradiation time 300 h ([2]; additive 10 mg/mL) | Percent Conjugation (%), irradiation time 0 h ([2]; additive 10 mg/mL) [%] | Percent Conjugation (%), irradiation time 150 h ([2]; additive 10 mg/mL) [%] | Percent Conjugation (%), irradiation time 300 h ([2]; additive 10 mg/mL) [%] | further results
1 | O=C([O-])CS.[Na+] [Na thioglycolate, sodium thioglycolate] | 163 ×10^4 | 136 ×10^4 | 97 ×10^4 | 8 ×10^4 | 5 ×10^4 | 2 ×10^4 | 2.1 | 2.2 | 163 ×10^4 | 123 ×10^4 | 44 ×10^4 | 2.1 | 2.2 | 2.2 | 181 ×10^4 | 170 ×10^4 | 157 ×10^4 | 2.1 | 2.1 | 2.2 | suppressing drops in the molecular weight and percent conjugation ([1]; added at 10 mg/ml, not shielded from light): considerably effective in suppressing drops in the molecular weight and percent conjugation even when the time of irradiation exceeded 100 hours; Percent Conjugation (%) of MTX, irradiation time 50 h [1, 3]: 2.2%; Percent Conjugation (%) of MTX, irradiation time 100 h [1, 3]: 1.4%; Percent Conjugation (%) of MTX, irradiation time 150 h [1, 3]: 1.0%; Percent Conjugation (%) of MTX, irradiation time 300 h [1, 3]: 0.4%; Molecular weight (×10^4), irradiation time 0 h [1, 4]: 181 ×10^4; Molecular weight (×10^4), irradiation time 25 h [1, 4]: 166 ×10^4; Molecular weight (×10^4), irradiation time 50 h [1, 4]: 169 ×10^4; Molecular weight (×10^4), irradiation time 100 h [1, 4]: 163 ×10^4; Molecular weight (×10^4), irradiation time 150 h [1, 4]: 154 ×10^4; Molecular weight (×10^4), irradiation time 300 h [1, 4]: 5 ×10^4; Percent Conjugation (%) of MTX, irradiation time 0 h [1, 4]: 2.1%; Percent Conjugation (%) of MTX, irradiation time 25 h [1, 4]: 2.2%; Percent Conjugation (%) of MTX, irradiation time 50 h [1, 4]: 2.3%; Percent Conjugation (%) of MTX, irradiation time 100 h [1, 4]: 2.0%; Percent Conjugation (%) of MTX, irradiation time 150 h [1, 4]: 2.2%; Percent Conjugation (%) of MTX, irradiation time 300 h [1, 4]: 1.4%
2 | O=S([O-])([O-])=S.[Na+].[Na+] [Na thiosulfate, sodium thiosulfate] |  |  |  |  |  |  |  |  | 181 ×10^4 | 186 ×10^4 | 180 ×10^4 | 2.3 | 2.2 | 2.2 | 190 ×10^4 | 188 ×10^4 | 186 ×10^4 | 2.1 | 2.2 | 2.1 | Molecular weight (×10^4), irradiation time 0 h [1]: 190 ×10^4 and 181 ×10^4; Molecular weight (×10^4), irradiation time 25 h [1]: 190 ×10^4 and 145 ×10^4; Percent Conjugation (%) of MTX, irradiation time 0 h [1]: 2.1% and 2.3%; Percent Conjugation (%) of MTX, irradiation time 25 h [1]: 2.2% and 2.1%; Percent Conjugation (%) of MTX, irradiation time 50 h [1]: 2.3% and 1.5%; Percent Conjugation (%) of MTX, irradiation time 100 h [1]: 2.1% and 0.8%; Percent Conjugation (%) of MTX, irradiation time 150 h [1]: 2.2% and 0.6%; Percent Conjugation (%) of MTX, irradiation time 300 h [1]: 2.1% and 0.4%; suppressing drops in the molecular weight and percent conjugation [1]: considerably effective in suppressing drops in the molecular weight and percent conjugation even when the time of irradiation exceeded 100 hours; stabilizing effects (suppressing effects on the drop in molecular weight and the drop in percent conjugation of MTX) ([2]; with light-shielding film LUMICOOL 1905): comparable to those obtained in the case where complete shielding of light was ensured by aluminum foil
3 | CC(=O)N[C@@H](Cc1c[nH]c2ccccc12)C(=O)O [N-acetyltryptophan] | 178 ×10^4 | 164 ×10^4 | 166 ×10^4 | 138 ×10^4 | 128 ×10^4 | 78 ×10^4 | 2.2 | 2.2 | 178 ×10^4 | 172 ×10^4 | 136 ×10^4 | 2.2 | 2.3 | 2.2 | 190 ×10^4 | 186 ×10^4 | 187 ×10^4 | 2.2 | 2.2 | 2.2 | suppressing drops in the molecular weight and percent conjugation [1, 5]: could suppress drops in the molecular weight and percent conjugation for irradiation periods that did not exceed about 100 hours; Percent Conjugation (%) of MTX, irradiation time 50 h [1, 3]: 2.3%; Percent Conjugation (%) of MTX, irradiation time 100 h [1, 3]: 2.2%; Percent Conjugation (%) of MTX, irradiation time 150 h [1, 3]: 2.1%; Percent Conjugation (%) of MTX, irradiation time 300 h [1, 3]: 2.1%; Molecular weight (×10^4), irradiation time 0 h [1, 4]: 190 ×10^4; Molecular weight (×10^4), irradiation time 25 h [1, 4]: 180 ×10^4; Molecular weight (×10^4), irradiation time 50 h [1, 4]: 175 ×10^4; Molecular weight (×10^4), irradiation time 100 h [1, 4]: 146 ×10^4; Molecular weight (×10^4), irradiation time 150 h [1, 4]: 135 ×10^4; Molecular weight (×10^4), irradiation time 300 h [1, 4]: 97 ×10^4; Percent Conjugation (%) of MTX, irradiation time 0 h [1, 4]: 2.2%; Percent Conjugation (%) of MTX, irradiation time 25 h [1, 4]: 2.2%; Percent Conjugation (%) of MTX, irradiation time 50 h [1, 4]: 2.2%; Percent Conjugation (%) of MTX, irradiation time 100 h [1, 4]: 1.9%; Percent Conjugation (%) of MTX, irradiation time 150 h [1, 4]: 2.1%; Percent Conjugation (%) of MTX, irradiation time 300 h [1, 4]: 2.0%
4 | N[C@@H](Cc1c[nH]c2ccccc12)C(=O)O [Tryptophan, tryptophan] | 188 ×10^4 | 171 ×10^4 | 138 ×10^4 | 112 ×10^4 | 83 ×10^4 | 45 ×10^4 | 2.2 | 2.2 | 188 ×10^4 | 176 ×10^4 | 153 ×10^4 | 2.2 | 2.2 | 2.2 | 181 ×10^4 | 177 ×10^4 | 156 ×10^4 | 2.2 | 2.2 | 2.2 | suppressing drops in the molecular weight and percent conjugation [1, 5]: could suppress drops in the molecular weight and percent conjugation for irradiation periods that did not exceed about 100 hours; Percent Conjugation (%) of MTX, irradiation time 50 h [1, 3]: 2.2%; Percent Conjugation (%) of MTX, irradiation time 100 h [1, 3]: 2.2%; Percent Conjugation (%) of MTX, irradiation time 150 h [1, 3]: 2.1%; Percent Conjugation (%) of MTX, irradiation time 300 h [1, 3]: 2.2%; Molecular weight (×10^4), irradiation time 0 h [1, 4]: 181 ×10^4; Molecular weight (×10^4), irradiation time 25 h [1, 4]: 175 ×10^4; Molecular weight (×10^4), irradiation time 50 h [1, 4]: 164 ×10^4; Molecular weight (×10^4), irradiation time 100 h [1, 4]: 118 ×10^4; Molecular weight (×10^4), irradiation time 150 h [1, 4]: 110 ×10^4; Molecular weight (×10^4), irradiation time 300 h [1, 4]: 70 ×10^4; Percent Conjugation (%) of MTX, irradiation time 0 h [1, 4]: 2.2%; Percent Conjugation (%) of MTX, irradiation time 25 h [1, 4]: 2.3%; Percent Conjugation (%) of MTX, irradiation time 50 h [1, 4]: 2.2%; Percent Conjugation (%) of MTX, irradiation time 100 h [1, 4]: 2.2%; Percent Conjugation (%) of MTX, irradiation time 150 h [1, 4]: 2.2%; Percent Conjugation (%) of MTX, irradiation time 300 h [1, 4]: 2.2%
